Laboratory results published in patent publication US11311568B2, “Therapeutic pharmaceutical composition for cancer including miRNA” (Purmx Therapeutics, Inc., priority 2017, dated 2022).

What was measured:
Experiment in all cases: Screening in cancer cell strains, cell survival rate with PrestoBlue
Type in all cases: cell-based
[1] = system: large intestine cancer cell strain HCT116 (p53 deletion); details: Day 5 after transfection with RNAiMAX, compared with miR-34a-5p
Experimental: (§1) The 349 types of aging induction miRNA (mirVana; Ambion) obtained from screening were transfected into various cancer cell strains (large intestine cancer cell strain HCT116 (p53 wildtype and p53 deletion), pancreatic cancer cell strains BxPC-3 and CFPAC-1, and tongue cancer cell strain HSC-4) with an auto dispenser Bravo (Agilent).
(§2) Transfection was carried out with the following protocol.
(§3) 1: To 70 μL of serum free medium (SFM) was added 0.35 μL of RNAiMAX (Invitrogen).
(§4) 2: The solution from 1 was added to a 96-well plate (μ-plate; ibidi) with Bravo.
(§5) 3: To 2 was added 0.7 μL of miRNA (Stock Conc. 200 nM) with Bravo, and this was mixed by pipetting.
(§6) 4: This was incubated at room temperature for 20 minutes.
(§7) 5: A cell suspension diluted to 3.5×10^4 cells/mL was dispensed at 70 μL each with Bravo.
(§8) 6: This was incubated at 37° C. under 5% CO2 condition.
(§9) Setting the day of transfection as Day 0, on Day 5 the cell survival rate was evaluated with PrestoBlue (Invitrogen). The operating protocol is shown below.
(§10) 1. The medium was exchanged to a medium comprising PrestoBlue diluted 20-folds, and this was incubated at 37° C. for 1 hour. 2. The fluorescence value (Ex/Em=560 nm/590 nm) was measured with Enspire (Perkin Elmer).
(§11) 3. The cell survival rate was determined by setting the fluorescence value obtained from the well with only the reagent as the background.

[2] = system: large intestine cancer cell strain HCT116 (p53 wildtype); details: Day 5 after transfection with RNAiMAX, compared with miR-34a-5p
Experimental: as §1, §2, §3, §4, §5, §6, §7, §8, §9, §10, §11

[3] = system: pancreatic cancer cell strain BxPC-3; details: BxPC-3, Day 5 after transfection with RNAiMAX, compared with miR-34a-5p
Experimental: as §1, §2, §3, §4, §5, §6, §7, §8, §9, §10, §11

[4] = system: pancreatic cancer cell strain CFPAC-1; details: CFPAC-1, Day 5 after transfection with RNAiMAX, compared with miR-34a-5p
Experimental: as §1, §2, §3, §4, §5, §6, §7, §8, §9, §10, §11

[5] = system: tongue cancer cell strain HSC-4; details: HSC-4, Day 5 after transfection with RNAiMAX, compared with miR-34a-5p
Experimental: as §1, §2, §3, §4, §5, §6, §7, §8, §9, §10, §11

Row | Substance | suppression of cell proliferation (cell survival rate, PrestoBlue) [1] | suppression of cell proliferation (cell survival rate, PrestoBlue) [2] | suppression of cell proliferation (cell survival rate, PrestoBlue) [3] | suppression of cell proliferation (cell survival rate, PrestoBlue) [4] | suppression of cell proliferation (cell survival rate, PrestoBlue) [5]
1 | miR-137-3p: Mature-miRNA, UUAUUGCUUAAGAAUACGCGUAG (SEQ ID NO. 5) (listed as RNA, chemistry not given here; listed as Homo sapiens) | suppress cell proliferation more significantly than miR-34-5p | suppress cell proliferation more significantly than miR-34-5p | suppress cell proliferation more significantly than miR-34-5p | suppress cell proliferation more significantly than miR-34-5p | suppress cell proliferation more significantly than miR-34-5p
2 | miR-631-5p: Mature-miRNA, AGACCUGGCCCAGACCUCAGC (SEQ ID NO. 8) (listed as RNA, chemistry not given here; listed as Homo sapiens) | suppress cell proliferation more significantly than miR-34-5p | suppress cell proliferation more significantly than miR-34-5p | suppress cell proliferation more significantly than miR-34-5p | suppress cell proliferation more significantly than miR-34-5p | suppress cell proliferation more significantly than miR-34-5p
3 | miR-657-3p: Mature-miRNA, GGCAGGUUCUCACCCUCUCUAGG (SEQ ID NO. 11) (listed as RNA, chemistry not given here; listed as Homo sapiens) | suppress cell proliferation more significantly than miR-34-5p | suppress cell proliferation more significantly than miR-34-5p | suppress cell proliferation more significantly than miR-34-5p | suppress cell proliferation more significantly than miR-34-5p | suppress cell proliferation more significantly than miR-34-5p
